Reference: publication PMC10938758, “A phenotypic screen of the Global Health Priority Box identifies an insecticide with anthelmintic activity” (Parasites & Vectors, 2024)
Read-outs that look alike come from different tables or passages of the source.

What was measured:
[1] = test system: exsheathed third-stage larvae (xL3s) of Haemonchus contortus; test: Primary screen, H. contortus larval development and phenotype (microscopy)
Method: An established high-throughput phenotypic screening assay was used to test the anthelmintic activity of compounds on H. contortus xL3s. Compounds were assessed for motility inhibition at a concentration of 20 µM in LB*. […] A solution of LB* + 1% (v/v) DMSO was used as a negative control. Test compounds were distributed amongst one flat-bottom, 384-well microplate (cat no. 3860; Corning, Corning, NY, USA). Eighty xL3s of H. contortus in 20 µl of LB* were added to each well to give a final volume of 40 µl. The plate was then placed in a CO2 incubator (10% [v/v] CO2, 38 °C, > 90% humidity). At 90 h, worm activity was captured using a WMicroTracker ONE unit (Phylumtech, Sunchales, Santa Fe, Argentina). Over a period of 15 min, disturbance of an infrared beam in individual wells was recorded as a worm ‘activity count’. Activity counts were then normalised to the positive and negative controls using the GraphPad Prism program (v.9.1.0 GraphPad Software, San Diego, CA, USA). The screening plate was then returned to the incubator (10% [v/v] CO2, 38 °C, > 90% humidity) for an additional 72 h. At 168 h, worms were fixed with 40 µl of Lugol solution (Sigma-Aldrich, St. Louis, MO, USA). Compounds were then assessed (microscopically) for inhibition of larval development and/or induction of a non-wild-type phenotype in H. contortus worms. […] The performance of the assay was monitored using the Z′-factor [58] calculated using data for the negative (DMSO) and positive (M-666) control compounds on individual plates.

H. contortus xL3s = test: H. contortus dose-response assay, xL3 motility; parameters: species or system Haemonchus contortus; conditions: xL3s, 90 h of incubation; for IC50: read-out: IC50, H. contortus larval motility inhibition
Method: The dose–response assay for H. contortus followed a well-established protocol; it was employed to evaluate the potency of hit compounds against this nematode. Test compounds were assessed individually for an effect on the motility of xL3s (10-point, twofold serial dilution in LB*, 40–0.16 μM). One compound, monepantel (prepared in the same manner as the test compounds), was used as a positive control. A solution of LB* was used as a negative control. The test and positive-control compounds were arrayed in triplicate across individual flat-bottom 96-well microplates, with six wells on each plate containing the negative control. Three hundred xL3s of H. contortus in 50 μl of LB* were added to each well to give a final volume of 100 μl. Plates were then placed in a CO2 incubator (10% [v/v] CO2, 38 °C, > 90% humidity). […] Over a period of 15 min, disturbance of an infrared beam in individual wells was recorded as a worm activity count. Raw activity counts for each well were normalised to the negative controls. The compound concentrations were log10-transformed and fitted using a variable-slope four-parameter equation, using the ordinary least squares fit model, employing GraphPad Prism (v.9.1.0). Larval development was established at 168 h of incubation with compound, as described previously. The development inhibition and phenotypes of larvae were examined microscopically. A one-way analysis of variance (ANOVA) with a Tukey multiple comparison test or an unpaired t-test was used to establish statistically significant differences in larval motility or development.

[2] = test system: rat hepatoma (FAO cell line) cells; conditions: cited from earlier work
[3] = test system: adult females of H. contortus; test: Motility of H. contortus adult females (video scoring); parameters: species or system Haemonchus contortus; conditions: 40 μM
Method: The activity of two test compounds was assessed on adult female specimens of H. contortus in an established assay. The compound was added in triplicate to the wells of a 24-well plate (Corning, USA) at a concentration of 40 μM in 500 μl of RPMI*. Two positive-control compounds, monepantel and moxidectin, and a negative control containing 1% (v/v) DMSO only were included in triplicate on the same plate. Three adult females were added to each of the triplicate wells containing either the test compound or the controls and placed in a CO2 incubator (10% [v/v] CO2, 38 °C, > 90% relative humidity) for 24 h. A video recording (30 s) of each well was taken at 3 h, 6 h, 12 h and 24 h during the total incubation period to assess the reduction in worm motility, which was scored as 3 (‘good’), 2 (‘low’), 1 (‘very low’) or 0 (‘no movement’; cf.). For each test or control compound, the motility scores for each of the triplicate wells were calculated, normalised with reference to the negative control (100% motility) and recorded as a percentage. A two-way ANOVA with a Tukey multiple comparison test was used to establish statistically significant differences in worm motility.

H. contortus larvae = test: H. contortus dose-response assay, larval development; parameters: species or system Haemonchus contortus; conditions: 168 h of incubation, read-out: IC50, inhibition of H. contortus larval development
Method: The dose–response assay for H. contortus followed a well-established protocol; it was employed to evaluate the potency of hit compounds against this nematode. Test compounds were assessed individually for an effect on the motility of xL3s (10-point, twofold serial dilution in LB*, 40–0.16 μM). One compound, monepantel (prepared in the same manner as the test compounds), was used as a positive control. A solution of LB* was used as a negative control. The test and positive-control compounds were arrayed in triplicate across individual flat-bottom 96-well microplates, with six wells on each plate containing the negative control. Three hundred xL3s of H. contortus in 50 μl of LB* were added to each well to give a final volume of 100 μl. Plates were then placed in a CO2 incubator (10% [v/v] CO2, 38 °C, > 90% humidity). After 168 h of incubation, worm activity was captured using a WMicroTracker ONE unit. Over a period of 15 min, disturbance of an infrared beam in individual wells was recorded as a worm activity count. Raw activity counts for each well were normalised to the negative controls. The compound concentrations were log10-transformed and fitted using a variable-slope four-parameter equation, using the ordinary least squares fit model, employing GraphPad Prism (v.9.1.0). Larval development was established at 168 h of incubation with compound, as described previously. The development inhibition and phenotypes of larvae were examined microscopically. A one-way analysis of variance (ANOVA) with a Tukey multiple comparison test or an unpaired t-test was used to establish statistically significant differences in larval motility or development.

C. elegans young adults = test: C. elegans dose-response assay, motility; parameters: species or system Caenorhabditis elegans; conditions: 40 h of incubation
Method: The dose–response assay for C. elegans followed a well-established protocol and was employed to evaluate the potency of hit compounds against this nematode. Test and positive-control compounds as well as negative controls were prepared in 96-well microplates (cf.). One hundred C. elegans in 50 μl of LB* were added to each well to give a final volume of 100 μl. Plates were then placed in an incubator at 20 °C for 40 h. At 40 h, worm activity was captured using a WMicroTracker ONE unit. Raw activity counts for each well were normalised to the negative controls. The compound concentrations were log10-transformed and fitted using a variable-slope four-parameter equation, using the ordinary least squares fit model, employing GraphPad Prism (v.9.1.0). A one-way ANOVA with a Tukey multiple comparison test or an unpaired t-test was used to establish statistically significant differences in larval motility.

[4] = H. contortus larvae; 20 µM; 168 h
[5] = Haemonchus contortus, 168 h, H. contortus, 20 µM, read-out: Larval development inhibition, %

## CO[C@H]1C[C@H](O[C@@H]2/C(C)=C/C[C@@H]3C[C@@H](C[C@]4(CC[C@H](C)[C@@H](C5CCCCC5)O4)O3)OC(=O)[C@@H]3C=C(C)/C(=N/O)[C@H]4OC/C(=C\C=C\[C@@H]2C)[C@]43O)O[C@@H](C)[C@@H]1O [MMV002231, selamectin]
[1]; [4]
  Abnormal phenotype: Cur
[1]; [5]
  inhibition at 20 µM: ≥ 90%

## C=C(C)[C@H]1Cc2c(ccc3c2O[C@@H]2COc4cc(OC)c(OC)cc4[C@@H]2C3=O)O1 [MMV002519, rotenone]
[1]; [4]
  Abnormal phenotype: Str
  Induction of an abnormal phenotype (in words): induced an abnormal phenotype
[1]; Haemonchus contortus, 168 h, read-out: Larval development inhibition; %
  inhibition at 20 µM: 100%

## O=C(Nc1ccc(Cl)c(C(F)(F)F)c1)Nc1ccc(Cl)c(C(F)(F)F)c1 [MMV027339]
[1]; [4]
  Induction of an abnormal phenotype (in words): did not inhibit development or induce an abnormal phenotype
H. contortus xL3s
  IC50: > 40000 nM

## CCc1nn(C)c(C(=O)NCc2ccc(Oc3ccc(C)cc3)cc2)c1Cl [MMV688934, tolfenpyrad]
[1]; [4]
  Abnormal phenotype: Str
  Induction of an abnormal phenotype (in words): induced an abnormal phenotype
[1]; Haemonchus contortus; H. contortus; 20 µM; 168 h; read-out: Larval development inhibition; %
  inhibition at 20 µM: 100%
[2]
  Respiration in FAO cells: inhibit respiration

## CCOCn1c(-c2ccc(Cl)cc2)c(C#N)c(Br)c1C(F)(F)F [MMV1577458, chlorfenapyr]
[1]; [4]
  Abnormal phenotype: Cur
  Induction of an abnormal phenotype (in words): induced an abnormal phenotype
[1]; [5]
  inhibition at 20 µM: 100%

## CO/N=C1\C[C@]2(C[C@@H]3C[C@@H](C/C=C(\C)C[C@@H](C)/C=C/C=C4\CO[C@@H]5[C@H](O)C(C)=C[C@@H](C(=O)O3)[C@]45O)O2)O[C@H](/C(C)=C/C(C)C)[C@H]1C [MMV1633828, moxidectin]
[1]; [5]
  inhibition at 20 µM: ≥ 90%

## COc1cc(/C=N/c2c(SC(F)(F)F)c(C#N)nn2-c2c(Cl)cc(C(F)(F)F)cc2Cl)ccc1O [MMV1794214]
[1]; [4]
  Induction of an abnormal phenotype (in words): did not inhibit development or induce an abnormal phenotype
[3]; 3 h
  Reduction of motility of adult females of H. contortus: ~ 0%
[3]; 6 h
  Reduction of motility of adult females of H. contortus: ~ 0%
[3]; 12 h
  Reduction of motility of adult females of H. contortus: ~23%
[3]; 24 h
  Reduction of motility of adult females of H. contortus: ~15%
H. contortus larvae
  IC50: > 40000 nM
H. contortus xL3s
  Maximum motility inhibition (MMI), H. contortus larvae: 70%
  IC50: 4500 ± 1100 nM

## C[C@](C#N)(COc1cc(C#N)ccc1C(F)(F)F)NC(=O)c1ccc(SC(F)(F)F)cc1 [Monepantel, monepantel]
C. elegans young adults
  Maximum motility inhibition (MMI), C. elegans: 95%
C. elegans young adults; Caenorhabditis elegans, read-out: IC50, C. elegans young adult motility
  IC50: 30 ± 10 nM
[1]; [4]
  Abnormal phenotype: Coi
[1]; [5]
  inhibition at 20 µM: 100%
[3]; 3 h
  Reduction of motility of adult females of H. contortus: ~ 0%
[3]; 6 h
  Reduction of motility of adult females of H. contortus: ~23%
[3]; 12 h
  Reduction of motility of adult females of H. contortus: ~66%
[3]; 24 h
  Reduction of motility of adult females of H. contortus: ~100%
H. contortus larvae; Haemonchus contortus
  IC50: 260 ± 30 nM
H. contortus xL3s; Haemonchus contortus
  IC50: 330 ± 120 nM
H. contortus xL3s
  Maximum motility inhibition (MMI), H. contortus larvae: 95%

## CO/N=C1\C[C@]2(C[C@@H]3C[C@@H](C/C=C(\C)C[C@@H](C)/C=C/C=C4\CO[C@@H]5[C@H](O)C(C)=C[C@@H](C(=O)O3)[C@]45O)O2)O[C@H](/C(C)=C/C(C)C)[C@H]1C [Moxidectin, moxidectin]
[1]; H. contortus; 20 µM; 168 h
  Larval development inhibition; %: 100%

## abamectin [MMV1577454]
[1]; [4]
  Abnormal phenotype: Str
